Legend:
[1] = Biodistribution study in LNCaP tumor-bearing mice (Th227 counted in organs); format: in vivo, SCID mice; conditions: 1500 kBq/kg
Method in brief: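 Th227 in excised, weighed organs was counted with a Germanium detector at predetermined time points (n=3 mice each). This followed one i.v. injection of radiolabelled compound into testosterone-supplemented SCID mice carrying LNCaP xenografts in Matrigel, dosed once tumors reached ~50 mm^2.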

C4-2 cells = assay: Cell proliferation assay (CellTiter-Glo, 5-day exposure), C4-2; format: cell-based; conditions: C4-2, 1000 cells/well, Th-227 labelled at 375 kBq/nmol, mean of 1 to 6 experiments
Method in brief: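 Growth inhibition by radiolabelled (Th-227) PSMA small-molecule ligands is measured as ATP luminescence after 5 days of treatment, referenced to a day-0 reading from sister plates. VCaP are seeded at 4000 cells/well, the remaining lines at 1000 cells/well.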

Work on `O=C([O-])CN1CCN(CC(=O)[O-])CCN(CC(=O)NCC2CCC(C(=O)NC(Cc3ccc4ccccc4c3)C(=O)NCCCCC(NC(=O)NC(CCC(=O)O)C(=O)O)C(=O)O)CC2)CCN(CC(=O)[O-])CC1.[227Th+4]` [Example 1-B-D-227Th, [^227Th]Thorium-(3S,10S,14R)-3-[(naphthalen-2-yl)methyl]-1,4,12-trioxo-1-{(1r,4S)-4-[(2-{4,7,10-tris[(carboxy-kappaO)methyl]-1,4,7,10-tetraazacyclododecan-1-yl-kappa^4N^1,N^4,N^7,N^10}acetamido)methyl]cyclohexyl}-2,5,11,13-tetraazahexadecane-10,14,16-tricarboxylate] yielded a Th-227 in Blood ([1]; 0.25 h) of 4.97% ID Th-227/g organ, a Th-227 in Liver ([1]; 0.25 h) of 1.25% ID Th-227/g organ and a Th-227 in Spleen ([1]; 0.25 h) of 1.91% ID Th-227/g organ. It also gave a Th-227 in Tumor ([1]; 0.25 h) of 2.08% ID Th-227/g organ, a Th-227 in bone ([1]; 0.25 h) of 1.70% ID Th-227/g organ and a Th-227 in brain ([1]; 0.25 h) of 0.18% ID Th-227/g organ. The Th-227 in kidney ([1]; 0.25 h) was 10.76% ID Th-227/g organ, the “Th-227 in large intestine” value ([1]; 0.25 h) was 0.75% ID Th-227/g organ and the Th-227 in lung ([1]; 0.25 h) was 3.67% ID Th-227/g organ. The Th-227 in muscle ([1]; 0.25 h) was 0.88% ID Th-227/g organ, the Th-227 in prostate ([1]; 0.25 h) was 6.26% ID Th-227/g organ and the “Th-227 in salivary glands” value ([1]; 0.25 h) was 1.61% ID Th-227/g organ. The “Th-227 in small intestine” value ([1]; 0.25 h) was 1.21% ID Th-227/g organ, the Th-227 in Blood ([1]; 1 hr) was 1.04% ID Th-227/g organ and the Th-227 in Liver ([1]; 1 hr) was 0.59% ID Th-227/g organ. It also gave a Th-227 in Spleen ([1]; 1 hr) of 1.09% ID Th-227/g organ, a Th-227 in Tumor ([1]; 1 hr) of 1.16% ID Th-227/g organ and a Th-227 in bone ([1]; 1 hr) of 0.99% ID Th-227/g organ. For the same compound, the Th-227 in kidney ([1]; 1 hr) was 4.11% ID Th-227/g organ, the “Th-227 in large intestine” value ([1]; 1 hr) was 0.18% ID Th-227/g organ and the Th-227 in lung ([1]; 1 hr) was 0.98% ID Th-227/g organ. The Th-227 in muscle ([1]; 1 hr) was 0.24% ID Th-227/g organ, the Th-227 in prostate ([1]; 1 hr) was 2.87% ID Th-227/g organ and the “Th-227 in salivary glands” value ([1]; 1 hr) was 0.52% ID Th-227/g organ. For the same compound, the “Th-227 in small intestine” value ([1]; 1 hr) was 0.26% ID Th-227/g organ, the Th-227 in Blood ([1]; 4 hr) was 0.20% ID Th-227/g organ and the Th-227 in Liver ([1]; 4 hr) was 0.43% ID Th-227/g organ. For the same compound, the Th-227 in Spleen ([1]; 4 hr) was 0.34% ID Th-227/g organ, the Th-227 in Tumor ([1]; 4 hr) was 1.59% ID Th-227/g organ and the Th-227 in bone ([1]; 4 hr) was 1.68% ID Th-227/g organ. For the same compound, the Th-227 in brain ([1]; 4 hr) was 0.01% ID Th-227/g organ, the Th-227 in kidney ([1]; 4 hr) was 2.97% ID Th-227/g organ and the “Th-227 in large intestine” value ([1]; 4 hr) was 0.17% ID Th-227/g organ. The Th-227 in lung ([1]; 4 hr) was 0.43% ID Th-227/g organ, the Th-227 in muscle ([1]; 4 hr) was 0.05% ID Th-227/g organ and the “Th-227 in salivary glands” value ([1]; 4 hr) was 0.30% ID Th-227/g organ. For the same compound, the “Th-227 in small intestine” value ([1]; 4 hr) was 0.17% ID Th-227/g organ, the Th-227 in Liver ([1]; 24 h) was 0.31% ID Th-227/g organ and the Th-227 in Spleen ([1]; 24 h) was 0.23% ID Th-227/g organ. It also gave a Th-227 in Tumor ([1]; 24 h) of 0.95% ID Th-227/g organ, a Th-227 in bone ([1]; 24 h) of 1.29% ID Th-227/g organ and a Th-227 in kidney ([1]; 24 h) of 0.83% ID Th-227/g organ. For the same compound, the “Th-227 in large intestine” value ([1]; 24 h) was 0.07% ID Th-227/g organ, the Th-227 in lung ([1]; 24 h) was 0.16% ID Th-227/g organ and the Th-227 in muscle ([1]; 24 h) was 0.00% ID Th-227/g organ. The “Th-227 in salivary glands” value ([1]; 24 h) was 0.09% ID Th-227/g organ, the “Th-227 in small intestine” value ([1]; 24 h) was 0.08% ID Th-227/g organ and the Th-227 in Liver ([1]; 96 h) was 0.31% ID Th-227/g organ. The Th-227 in Spleen ([1]; 96 h) was 0.29% ID Th-227/g organ, the Th-227 in Tumor ([1]; 96 h) was 1.05% ID Th-227/g organ and the Th-227 in bone ([1]; 96 h) was 2.88% ID Th-227/g organ. It also gave a Th-227 in kidney ([1]; 96 h) of 0.37% ID Th-227/g organ, a Th-227 in lung ([1]; 96 h) of 0.14% ID Th-227/g organ and a Th-227 in muscle ([1]; 96 h) of 0.00% ID Th-227/g organ. The “Th-227 in salivary glands” value ([1]; 96 h) was 0.13% ID Th-227/g organ, the “Th-227 in small intestine” value ([1]; 96 h) was 0.06% ID Th-227/g organ and the “Proliferation assay on cancer cell lines by TTCs Default Pivot #3 IC50 [kBq/mL] C4-2 1000cells 375kBq/nmol (mean)” value (C4-2 cells) was 3.15 kBq/mL.

Source: US20230072421A1, “TARGETED RADIOPHARMACEUTICALS FOR THE DIAGNOSIS AND TREATMENT OF PROSTATE CANCER” (Bayer AS, priority 2019, published 2023)
